Experimental data published in patent publication US8211479B2, “Combinations of vasoactive substances with estrogens and their use in the treatment of female sexual dysfunctions” (Indena S.p.A., priority 2007, dated 2012).

Assays:
[1] = tested on: arterioles and precapillary arteries; conditions: topically administered; increasing blood flow and tissue perfusion; cited from earlier work
PDE5A1 = PDE5A1 (Homo sapiens, UniProt O76074)

Row | inhibition of phosphodiesterase cGMP (in words) (PDE5A1) | Compound | vasokinetic action on arterioles and precapillary arteries (in words) [1]
1 |  | Visnadin | marked vasokinetic action
2 | powerful inhibitors | COc1ccc(-c2oc3c(CC=C(C)C)c(OCCO)cc(O)c3c(=O)c2O[C@@H]2O[C@@H](C)[C@H](O)[C@@H](O)[C@H]2O)cc1 [Compound 2, 7-O-hydroxyethyl-icariside II] | 
3 | powerful inhibitors | COc1ccc(-c2oc3c(CC=C(C)C)c(OCCO)cc(O)c3c(=O)c2OCCO)cc1 [Compound 1, 3,7-O-di-(2-hydroxyethyl)icaritin] | 
